Experimental data from ChEMBL document CHEMBL2440014, “Design, synthesis and biological evaluation of di-substituted cinnamic hydroxamic acids bearing urea/thiourea unit as potent histone deacetylase inhibitors” (Bioorg Med Chem Lett, 2013).

Tests used:
[1] = target: Histone deacetylase; assay: Inhibition of HDAC in human HeLa cell nuclear extracts using Fluor de Lys as substrate by fluorescence assay; format: protein assay
[2] = target: Histone deacetylase (Homo sapiens) (UniProt Q13547+O15379+Q9UBN7+Q92769+Q9UQL6+Q8WUI4+Q9BY41+Q96DB2+P56524+Q9UKV0+Q969S8); details: HeLa, at 1 µM
Description: Inhibition of HDAC in human HeLa cell nuclear extracts using Fluor de Lys as substrate at 1 uM by fluorescence assay

[3] = system: HCT-116; assay: Antiproliferative activity against human HCT116 cells after 48 hrs by sulforhodamine B assay; format: functional; details: HCT-116, 48 h
[4] = system: OVCAR-5; assay: Antiproliferative activity against human OVCAR5 cells after 48 hrs by sulforhodamine B assay; format: functional; details: OVCAR-5, 48 h
[5] = system: MCF7; assay: Antiproliferative activity against human MCF7 cells after 48 hrs by sulforhodamine B assay; format: functional; details: MCF7, 48 h
[6] = system: MDA-MB-435; assay: Antiproliferative activity against human MDA-MB-435 cells after 48 hrs by sulforhodamine B assay; format: functional; details: MDA-MB-435, 48 h
[7] = system: NCI-H460; assay: Antiproliferative activity against human NCI-H460 cells after 48 hrs by sulforhodamine B assay; format: functional; details: NCI-H460, 48 h

SMILES	IC50 [1] [nM]	inhibition [2] [%]	GI50 [3] [nM]	GI50 [4] [nM]	GI50 [5] [nM]	GI50 [6] [nM]	GI50 [7] [nM]
CCCNC(=O)Nc1cc(/C=C/C(=O)NO)ccc1SCCN(CC)CC	198	82.7					
CCCCNC(=O)Nc1cc(/C=C/C(=O)NO)ccc1OCCN(CC)CC		80.7					
CCCCNC(=S)Nc1cc(/C=C/C(=O)NO)ccc1SCCN(CC)CC		73.9					
CCCCCNC(=S)Nc1cc(/C=C/C(=O)NO)ccc1SCCN(CC)CC		73.8					
CCCCCCNC(=S)Nc1cc(/C=C/C(=O)NO)ccc1OCCN(CC)CC	187	87.4					
CCCCCNC(=O)Nc1cc(/C=C/C(=O)NO)ccc1OCCN(CC)CC	186	88.9	470	1340	290	830	870
CCCCCNC(=O)Nc1cc(/C=C/C(=O)NO)ccc1SCCN(CC)CC	206	84.2	560	1800	400	990	940
CCCNC(=S)Nc1cc(/C=C/C(=O)NO)ccc1SCCN(CC)CC		76.2					
O=C(CCCCCCC(=O)Nc1ccccc1)NO [VORINOSTAT]			940		450	880	
CCCCCCCNC(=O)Nc1cc(/C=C/C(=O)NO)ccc1SCCN(CC)CC		48.7					

Continued, values first:

IC50 [1] [nM]	inhibition [2] [%]	GI50 [3] [nM]	GI50 [4] [nM]	GI50 [5] [nM]	GI50 [6] [nM]	GI50 [7] [nM]	SMILES
	79.6						CCCCCCNC(=O)Nc1cc(/C=C/C(=O)NO)ccc1SCCN(CC)CC
410	83.6						CCCCCCCNC(=O)Nc1cc(/C=C/C(=O)NO)ccc1OCCN(CC)CC
130	88	350	1120	220	510	480	CCCCNC(=S)Nc1cc(/C=C/C(=O)NO)ccc1OCCN(CC)CC
		240	610	170	480	220	CCCCc1nc2cc(/C=C/C(=O)NO)ccc2n1CCN(CC)CC [PRACINOSTAT]
210	82.9						CCCNC(=S)Nc1cc(/C=C/C(=O)NO)ccc1OCCN(CC)CC
234	80						CCCNC(=O)Nc1cc(/C=C/C(=O)NO)ccc1OCCN(CC)CC
	72.2						CCCCCCNC(=S)Nc1cc(/C=C/C(=O)NO)ccc1SCCN(CC)CC
172	84.5	590	1750	430	1500	1550	CCCCNC(=O)Nc1cc(/C=C/C(=O)NO)ccc1SCCN(CC)CC
216	90.5	720	1560	380	1180	1080	CCCCCNC(=S)Nc1cc(/C=C/C(=O)NO)ccc1OCCN(CC)CC
	69.8						CCCCCCCNC(=S)Nc1cc(/C=C/C(=O)NO)ccc1OCCN(CC)CC
	62.4						CCCCCCCNC(=S)Nc1cc(/C=C/C(=O)NO)ccc1SCCN(CC)CC
304	87.5						CCCCCCNC(=O)Nc1cc(/C=C/C(=O)NO)ccc1OCCN(CC)CC
